Measurements published in patent US6413908B1, “Agrochemical surfactant compositions” (Imperial Chemical Industries plc, priority 1997, dated 2002).

Legend:
[1] = test system: Veronica hederifolia; conditions: background statement, no adjuvant; cited from earlier work
[2] = test system: Galium aparine; test: Field test, triasulfuron plus adjuvants against weeds in winter wheat; type: in vivo; conditions: triasulfuron 25 g.ha^−1, adjuvant 0.1% by weight or none; visual, percentage of plants affected, 5 weeks after treatment
Procedure: (§1) Field tests were carried out on test plots using a completely randomised block design with 4 replicates. […] In such a situation, it is an important benefit if the herbicide can limit the growth of the weeds (inhibition) e.g. by use of an adjuvant. In this Example, the effect of adjuvants on the activity of triasulfuron against G aparine and V hederifolia growing naturally as weeds in winter wheat was examined. […] G aparine and V hederifolia were used in evaluating herbicidal activity because of their regular distribution. […] The results of the runs using no adjuvant and those for combined adjuvants and herbicide are set out in Table 1 below.

[3] = test system: Veronica hederifolia; test: as above; type: in vivo; conditions: triasulfuron 25 g.ha^−1, adjuvant 0.1% by weight or none; visual, percentage of plants affected, 5 weeks after treatment
Procedure: as §1

[4] = test system: Galium aparine; conditions: background statement, no adjuvant; cited from earlier work
[5] = test system: Veronica hederffolia; test: Field test, Cameo (tribenuron-methyl) plus adjuvants in winter wheat, growth reduction; type: in vivo; conditions: spray 0.015% tribenuron-methyl, 0.1% adjuvant in tank mix or none
Procedure: Field tests were carried out on test plots using a completely randomised block design with 4 replicates. The spray volume used was 300 I.ha^−1.
The spray solution contained 0.015% by weight tribenuronethyl and 0.1% adjuvant added to the tank mix. The effectiveness of the herbicides was assessed visually by the % growth reduction of the weeds as compared with untreated weeds.

| Compound | known activity against ivy-leaved speedwell (Veronica hederifolia) [1] | Chlorosis, Galium aparine (5 weeks) [2] [%] | Inhibition, Galium aparine (5 weeks) [2] [%] | Necrosis, Galium aparine (5 weeks) [2] [%] | Chlorosis, Veronica hederifolia (5 weeks) [3] [%] | Inhibition, Veronica hederifolia (5 weeks) [3] [%] | Necrosis, Veronica hederifolia (5 weeks) [3] [%] | known activity against cleavers (Galium aparine) [4] | Inhibition (%), growth reduction of the weeds as compared with untreated weeds [5] [%] |
| --- | --- | --- | --- | --- | --- | --- | --- | --- | --- |
| COc1nc(C)nc(NC(=O)NS(=O)(=O)c2ccccc2OCCCl)n1 [triasulfuron] | limited activity | 30 | 50 | 10 | 10 | 40 | 10 | limited activity | – |
| nonyl phenol 8-ethoxylate [NP8] | – | 30 | 40 | 10 | 40 | 60 | 30 | – | 33 |
